# Source: the OPERA property sets (Mansouri et al. 2018)
# Settings: 20 °C
row,SMILES,solubility [mM]
1,CF,667
2,CI,97.2

# Same assay, conditions: 21 °C
row,solubility [mM],SMILES
1,48.5,CC(F)F

# Same assay, conditions: 25 °C
row,SMILES,solubility [mM]
1,Clc1ccccc1,4.42
2,CC(Cl)CCl (stereo not drawn),24.8
3,BrC(Br)Br,13.8
4,ClC(Cl)(Cl)Cl,5.16
5,FC(F)F,58.4
6,FC(F)Cl,32
7,ClCCl,153
8,FC(F)=C(F)F,1.58
9,BrC=CBr,34.7
10,FC(F)(F)Br,2.15
11,FC(F)(F)C(F)(F)Cl,0.382
12,FC(Cl)Cl,183
13,CBr,160
14,FC(F)(F)F,0.214
15,C=C(F)F,197
